# Assay results reported in patent US20050074827A1, “Methods for identifying modulators of quorum-sensing signaling in bacteria” (priority 2003, published 2005).
# How the values were obtained:
# [1] = system: LasR-controlled promoter PrsaL (yfp reporter) in MW1.pUM15; assay: Titration of yfp expression in MW1.pUM15 against autoinducer concentration; format: cell-based, Pseudomonas aeruginosa
# From the text: Strain Construction. We tested whether the P. aeruginosa quorum-sensing-controlled promoter for the rsaL gene (PrsaL) can be used in high-throughput screening to identify modulators of quorum-sensing signaling. We constructed a plasmid (designated pUM15) with yfp under control of the P. aeruginosa LasR-controlled promoter PrsaL and introduced the plasmid into P. aeruginosa wild-type strain PAO1 (designated PAO1.pUM15). In PAO1.pUM15, the expression of yfp is dependent on the endogenously synthesized autoinducer, 3-oxo-C12-HSL. Thus, fluorescence will be altered if a test compound modulates any aspect of signaling, including, e.g., signal synthesis, stability, reception, or expression of LasR-dependent genes. Accordingly, we designated this assay the “Complete Signaling Assay” or CSA. […]
# Measurement of Reporter Gene Product. We measured fluorescence with an excitation filter at 485 nm and an emission filter at 535 nm in a Tecan SPECTRAFluor Plus plate reader. […]
# Expression Depends on Autoinducer. […] We detected very little fluorescence in MW1.pUM15 culture grown in the absence of signal molecule (FIG. 1).
# The Assay Mimics Naturally Occurring Quorum-Sensing Signaling. […] We observed that fluorescence in MW1.pUM15 is half-maximal at 200±100 nM 3-oxo-C12-HSL (FIG. 2). […] We also confirmed that expression of yfp is quorum-sensing dependent by graphing fluorescence per cell against cell density (FIG. 3). […]
# [2] = cell-based binding assay, Passador et al., J. Bacteriol. 178: 5995-6000 (1996); read-out: half-maximal saturation; cited from earlier work
compound,measurement,setting,value
CCCCCCCCCC(=O)CC(=O)NC1CCOC1=O (stereo not drawn) [3-oxo-C12-HSL],EC50,"[1]; MW1.pUM15, yfp fluorescence, FIG. 2, read-out: 3-oxo-C12-HSL concentration at which fluorescence in MW1.pUM15 is half-maximal",200 ± 100 nM
same,effect on yfp expression in MW1.pUM15,"[1]; addition of autoinducer, 0.9 mM per FIG. 1 legend",restored expression of yfp
same,Kd,[2],200 nM
